What was measured:
[1] = test system: zymosan A-induced peritoneal inflammation (inflammatory exudate cells); experiment: Murine peritoneal inflammation induced by zymosan A, exudate cells by FACS; assay type: in vivo, mouse; settings: 4 hours after 0.1 mg zymosan A i.p., vs vehicle
Procedure: With respect to 17-HDHA, it is possible that the anti-inflammatory activity of oil fraction 1 (shown in FIG. 1A) can therefore be explained, at least in part, due to the selective enrichment of this anti-inflammatory SPM precursor into this oil fraction. In order to determine the anti-inflammatory action and contribution of 17-HDHA, the anti-inflammatory effect of fraction 1 was determined in a well-known model of sterile inflammation. […] Vehicle (100 microliter sterile salive), 100 microliter oil fraction 1, or 1 microgram synthetic 17S-HDHA (Cayman Chemicals) in sterile salive was administered by gavage 30 minutes prior to intraperitoneal injection of 0.1 mg zymosan A. Oil fraction 1 analyzed here is the same as fraction number 1 shown in FIGS. 1, 2, and 3. After 4 hours, the inflammatory exudate was recovered and the changes in the number and types of inflammatory cells determined by fluorescent-activated cell sorting employing specific fluorescently-labeled antibodies. Values are mean±standard error of the mean of […] individual mice. Statistically significant differences (Student's t-test) are indicated by * (P<0,05) or # (P<0,10) for comparisons of inflammatory exudate cell numbers obtained after treatment with oil fraction 1 or compared to the vehicle-treated mice. […] This anti-inflammatory effect was reproduced by the oral administration (gavage) of 17S-HDHA.

[2] = test system: LPS-induced inflammation (neutrophil infiltration, myeloperoxidase bioluminescence); experiment: Murine subcutaneous LPS-induced inflammation, neutrophil activity by luminol bioluminescence; assay type: in vivo, mouse; settings: given by gavage 30 min prior to LPS (oil fraction 100 microliter; indomethacin 10 mg/kg), vs vehicle
Description: To evaluate the anti-inflammatory activity of distinct fatty acid-ethyl ester oil fractions obtained during supercritical fluid chromatography (SFC) for the industrial-scale manufacturing of EPA-ethyl ester and DHA-ethyl ester concentrates, a murine model of subcutaneous sterile inflammation was established which permitted measuring the effects of orally administered oil fractions on the pro-inflammatory phase of the inflammatory response. […] In order to initiate inflammation, Escherichia coli lipopolysaccharide (LPS; serotype 127:B8, purified by trichloroacetic acid extraction, Sigma-Aldrich) was injected sub-cutaneously as a single dose (5 milligram per kilogram in a 200 microliter volume of sterile […] dorsal hind flank of a mouse (CD1 mice of 9 weeks age and weighing approximately 30 grams, purchased from the Charles River company). Neutrophil infiltration into the site of inflammation was measured non-invasively by bioluminescence emitted by conversion of luminol by the neutrophil enzyme myeloperoxidase (Gross, 2009), permitting assessment of inflammatory changes over a 6 hour time period. […]

[3] = gavage 30 min prior (100 microliter oil fraction or 1 microgram 17S-HDHA)

SMILES | number of polymorphonuclear leukocytes (PMN) in exudate [1, 3] | total number of exudate cells [1, 3] | monocytes, macrophages or lymphocytes in exudate ([1]; gavage 30 min prior) | reduction of LPS-induced inflammation ([2]; 3 hours after LPS s.c.) [%] | reduction of LPS-induced inflammation ([2]; 6 hours after LPS s.c.) [%]
CC/C=C\C[C@H](O)/C=C/C=C\C/C=C\C/C=C\C/C=C\CCC(=O)O [17S-HDHA, 17S-hydroxy-docosa-4Z,7Z,10Z,13Z,15E,19Z-hexaenoic acid] | reproduced | reproduced | No statistically significant changes |  | 
COc1ccc2c(c1)c(CC(=O)O)c(C)n2C(=O)c1ccc(Cl)cc1 [indomethacin] |  |  |  | 26 | 44

— patent US11865096B2, “Oils with anti-inflammatory activity containing natural specialized proresolving mediators and their precursors” (Solutex NA LLC, priority 2012, dated 2024)
